Test system: Peyer's patch cells
Test: Production of IgA, IgG and cytokines by Peyer's patch cells of mice fed lactosucrose (Experiment 3)
Type: in vivo
Details: for IFN-γ produced by Peyer's patch cells / IL-4 produced by Peyer's patch cells / IL-6 produced by Peyer's patch cells / IgA produced by Peyer's patch cells / IgG produced by Peyer's patch cells / TGF-β produced by Peyer's patch cells / IL-10 produced by Peyer's patch cells: four weeks
Experimental: In order to investigate what type of immunopathologically-mediated tissue exerts the enhancing effect on gut immunity, the amounts of IgA, IgG, and various cytokines were measured. Similarly as in Experiment 1, female BALB/c mice (six weeks old) were preliminary reared for one week on “AIN-93G”, the same standard purified diet as used in Experiment 1. Successively, “LS-90P”, a saccharide composition comprising 91.8% (w/w), on a dry solid basis, of lactosucrose commercialized by ENSUIKO Sugar Refining Co., Ltd., Tokyo, Japan, was incorporated into the above purified diet, in which corn starch equal to the amount of the saccharide composition comprising lactosucrose had been removed, to give a lactosucrose content of 2% (w/w) or 5% (w/w), and five mice/group were allowed to ingest the resulting test diet freely. Mice, allowed to ingest “AIN-93G”, as the standard purified diet, were used as control. At four weeks after starting the administration of the test diet, Peyer's patch and intestinal lymph nodes were respectively removed from the mice and cut using a scissor. Then, the resultants were respectively treated in 0.2% (w/v) aqueous collagenase solution at 37° C. for 30 min, and filtrated using a cell strainer to obtain cell suspensions. Each cell suspension was centrifuged to collect cells and the resulting cells were suspended into a 45% (v/v) solution of “PERCOLL”, commercialized by GE Healthcare, to make into a cell suspension. Each resulting suspension was successively placed on a 75% (v/v) “PERCOLL” solution and centrifuged at 1,000×g for 10 min. Cells in a boundary phase between 45% (v/v) and 75% (v/v) “PERCOLL” solution were collected and suspended in RPMI1640 medium comprising 10% FCS and 10 mM HEPES, and the cell concentration was adjusted to 1×10^6 cells/ml. The resulting cell suspension was placed in a 24-well plate to give one ml/well each. Then, 2 μg/ml of Concanavaline A (Con A) as a stimulator to T-cell or 10 μg/ml of lipopolysaccharide (LPS) as a stimulator to B-cell and macrophage cell was admixed with the cell suspension, and then the cells were cultured at 37° C. for 48 hours using 5% (v/v) carbon dioxide gas. A culture supernatant was collected from each well, and the amounts of IgA, IgG, IFN-γ, interleukin-4 (IL-4), IL-6, interleukin-10 (IL-10), and TGF-β were measured by ELISA using an anti-mouse IgA antibody, anti-mouse IgG antibody, anti-mouse IFN-γ antibody (commercialized by Pepro Tech EC. Ltd.), anti-mouse IL-4 antibody (commercialized by R&D Systems), anti-mouse IL-6 antibody (commercialized by R&D Systems), anti-mouse IL-10 antibody (commercialized by R&D Systems), and anti-mouse TGF-β antibody (commercialized by Promega Co., Wisconsin, USA), and the average values of those from five mice were determined. The results for Peyer's patch cells and intestinal lymph node cells are respectively in Tables 3 and 4. The percentages in parentheses in the tables mean a relative value to the amount of IgA, IgG, IFN-γ, IL-4, IL-6, IL-10 or TGF-β produced by Peyer's patch cells or intestinal lymph node cells from the control mice.

[1] = Lactosucrose 2% (w/w) diet, Con A
[2] = Lactosucrose 2% (w/w) diet, LPS
[3] = Lactosucrose 5% (w/w) diet, Con A
[4] = Lactosucrose 5% (w/w) diet, LPS

OC[C@H]1O[C@@H](O[C@H]2[C@H](O)[C@@H](O)[C@@H](O[C@]3(CO)O[C@H](CO)[C@@H](O)[C@@H]3O)O[C@@H]2CO)[C@H](O)[C@@H](O)[C@H]1O [Lactosucrose, β-D-galactosyl-(1,4)-α-D-glucosyl-(1,2)-β-D-fructoside] was tested, and the “IFN-γ produced by Peyer's patch cells” value [1] was 11 ± 5.0 ng/mL, the “IL-4 produced by Peyer's patch cells” value [1] was 22 ± 0.58 pg/mL and the “IL-6 produced by Peyer's patch cells” value [1] was 35 ± 14 pg/mL. For the same molecule, the “IgA produced by Peyer's patch cells” value [1] was 1.9 ± 0.49 µg/mL, the “IgG produced by Peyer's patch cells” value [1] was 110 ± 28 ng/mL and the “TGF-β produced by Peyer's patch cells” value [1] was 0.40 ± 0.24 ng/mL. For the same molecule, the “IL-10 produced by Peyer's patch cells” value (Lactosucrose 2% (w/w) diet, Con A, DL: Detection limit) was “Below DL*”, the “IFN-γ produced by Peyer's patch cells” value [2] was 1.2 ± 0.44 ng/mL and the “IL-4 produced by Peyer's patch cells” value [2] was 15 ± 1.6 pg/mL. The “IL-6 produced by Peyer's patch cells” value [2] was 250 ± 27 pg/mL, the “IL-10 produced by Peyer's patch cells” value [2] was 200 ± 57 pg/mL and the “IgA produced by Peyer's patch cells” value [2] was 1.9 ± 1.8 µg/mL. The “IgG produced by Peyer's patch cells” value [2] was 110 ± 90 ng/mL, the “TGF-β produced by Peyer's patch cells” value [2] was 1.3 ± 0.20 ng/mL and the “IFN-γ produced by Peyer's patch cells, relative value to control” value (shortened to “IFN-γ produced … relative value to control”) (Lactosucrose 2% (w/w), Con A) was “(100%)”. For the same molecule, the “IL-4 produced by Peyer's patch cells, relative value to control” value (“IL-4 produced … relative value to control” for short) (Lactosucrose 2% (w/w), Con A) was “(105%)”, the “IL-6 produced by Peyer's patch cells, relative value to control” value (shortened to “IL-6 produced … relative value to control”) (Lactosucrose 2% (w/w), Con A) was “(106%)” and the “IgA produced by Peyer's patch cells, relative value to control” value (“IgA produced … relative value to control” below) (Lactosucrose 2% (w/w), Con A) was “(127%)”. The “IgG produced by Peyer's patch cells, relative value to control” value (“IgG produced … relative value to control” for short) (Lactosucrose 2% (w/w), Con A) was “(151%)”, the “TGF-β produced by Peyer's patch cells, relative value to control” value (from here on “TGF-β produced … relative value to control”) (Lactosucrose 2% (w/w), Con A) was “(133%)” and the “IFN-γ produced … relative value to control” value (Lactosucrose 2% (w/w), LPS) was “(146%)”. The “IL-4 produced … relative value to control” value (Lactosucrose 2% (w/w), LPS) was “(107%)”, the “IL-6 produced … relative value to control” value (Lactosucrose 2% (w/w), LPS) was “(114%)” and the “IL-10 produced by Peyer's patch cells, relative value to control” value (Lactosucrose 2% (w/w), LPS) was “(95%)”. The “IgA produced … relative value to control” value (Lactosucrose 2% (w/w), LPS) was “(216%)”, the “IgG produced … relative value to control” value (Lactosucrose 2% (w/w), LPS) was “(244%)” and the “TGF-β produced … relative value to control” value (Lactosucrose 2% (w/w), LPS) was “(100%)”. For the same molecule, the “IFN-γ produced by Peyer's patch cells” value [3] was 21 ± 13 ng/mL, the “IL-4 produced by Peyer's patch cells” value [3] was 20 ± 0.74 pg/mL and the “IL-6 produced by Peyer's patch cells” value [3] was 84 ± 39 pg/mL. The “IgA produced by Peyer's patch cells” value [3] was 4.5 ± 2.6 µg/mL, the “IgG produced by Peyer's patch cells” value [3] was 270 ± 120 ng/mL and the “TGF-β produced by Peyer's patch cells” value [3] was 0.66 ± 0.13 ng/mL. The “IL-10 produced by Peyer's patch cells” value (Lactosucrose 5% (w/w) diet, Con A, DL: Detection limit) was “Below DL*”, the “IFN-γ produced by Peyer's patch cells” value [4] was 3.0 ± 2.1 ng/mL and the “IL-4 produced by Peyer's patch cells” value [4] was 14 ± 0.88 pg/mL. For the same molecule, the “IL-6 produced by Peyer's patch cells” value [4] was 470 ± 250 pg/mL, the “IL-10 produced by Peyer's patch cells” value [4] was 160 ± 56 pg/mL and the “IgA produced by Peyer's patch cells” value [4] was 7.0 ± 4.0 µg/mL. For the same molecule, the “IgG produced by Peyer's patch cells” value [4] was 370 ± 150 ng/mL, the “TGF-β produced by Peyer's patch cells” value [4] was 1.2 ± 0.090 ng/mL and the “IFN-γ produced … relative value to control” value (Lactosucrose 5% (w/w), Con A) was “(191%)”. The “IL-4 produced … relative value to control” value (Lactosucrose 5% (w/w), Con A) was “(95%)”, the “IL-6 produced … relative value to control” value (Lactosucrose 5% (w/w), Con A) was “(255%)” and the “IgA produced … relative value to control” value (Lactosucrose 5% (w/w), Con A) was “(300%)”. For the same molecule, the “IgG produced … relative value to control” value (Lactosucrose 5% (w/w), Con A) was “(370%)”, the “TGF-β produced … relative value to control” value (Lactosucrose 5% (w/w), Con A) was “(220%)” and the “IFN-γ produced … relative value to control” value (Lactosucrose 5% (w/w), LPS) was “(366%)”. For the same molecule, the “IL-4 produced … relative value to control” value (Lactosucrose 5% (w/w), LPS) was “(100%)”, the “IL-6 produced … relative value to control” value (Lactosucrose 5% (w/w), LPS) was “(214%)” and the “IL-10 produced by Peyer's patch cells, relative value to control” value (Lactosucrose 5% (w/w), LPS) was “(76%)”. For the same molecule, the “IgA produced … relative value to control” value (Lactosucrose 5% (w/w), LPS) was “(795%)”, the “IgG produced … relative value to control” value (Lactosucrose 5% (w/w), LPS) was “(822%)” and the “TGF-β produced … relative value to control” value (Lactosucrose 5% (w/w), LPS) was “(92%)”.
